The structures appear in SMILES notation.

The values below come from patent US9862678B2, “3,4-diaminobenzenesulfonamide derivatives for inhibiting cell death” (VIB VZW, priority 2014, dated 2018).

The subject of the experiment is IMR-32 neuroblastoma cell line. The experiment in a line: Inhibition of erastin-induced ferroptosis in IMR-32 cells (Sytox Green cell death readout). The class given is cell-based. The conditions noted are these: Homo sapiens; inhibiting ferroptosis in the IMR-32 neuroblastoma cell line stimulated with 10 μM erastin; compounds 1 nM to 1 μM, triplicate. As for the experimental part: In the present disclosure, the potency of a compound inhibiting (or reducing) ferroptosis and/or oxytosis are determined in in vitro or in vivo assays. Typically in vitro assays are used to measure the potency of a candidate compound. Examples of suitable in vitro assays are cellular assays. One non-limiting example of an assay involves the use of the IMR-32 neuroblastoma cell line. The latter is stimulated to enter into ferroptosis upon stimulation with 10 μM erastin, a documented ferroptosis inducer (see, for example, Dixon et al. (2012) Cell 149, 1060-1072, and ferroptosis inhibitors are evaluated for the prevention of erastin-induced ferroptosis. Yet another assay is based the glutamate-induced cell death in the hippocampal cell line HT22 and ferroptosis/oxytosis inhibitors are evaluated for the prevention of cell death (see N. Henke et al. (2013) Cell Death and Disease 4, e470). Still another assay is based on the sorafinib-induced cell death (described to be iron dependent cell death) in hepatocellular carcinoma cells and ferroptosis inhibitors are evaluated for the prevention of cell death (see C. Louandre et al. (2013) Int. J. Cancer 133, 1732). The calculated potency of a compound inhibiting ferroptosis and/or oxytosis is typically depicted as an IC50 value. Examples of suitable in vivo assays are typically pre-clinical disease models of, for example, mice for the diseases benefiting the application of ferroptosis and/or oxytosis inhibitors, as described herein. One non-limiting example of an in vivo assay is based on inducing liver damage in mice by administering the herbicide diquat dibromide monohydrate and ferroptosis inhibitors are evaluated based on reduced levels of liver transaminases in serum (see Q. Ran et al. (2004) J. Biol. Chem. 279, 53, 55137).
The IC50 values for the individual compounds of the disclosure were determined in the neuroblastoma, IMR-32 cell line. In brief, IMR-32 cells were subjected to 10 μM erastin, the latter compound is known to induce ferroptosis. A concentration gradient (ranging from 1 nM to 1 μM) of the compounds was applied to the cells. These experiments were performed in a 96-well format (in triplicate), and cell death was analyzed in a fluorescent plate reader by use of a fluorescent cell death dye (1.5 μM Sytox Green). The IC50 values depicted in Table 1 are the concentration values for the individual compounds which are able to overcome ferroptosis.
For the compound `CCNS(=O)(=O)c1ccc(NC2CCCCCCC2)c(NCc2ccccc2)c1` [Compound 42, 3-(benzylamino)-4-(cyclooctylamino)-N-ethylbenzenesulfonamide], half-maximal inhibition (IC50) required 2.4 nM. Next, `CCNS(=O)(=O)c1ccc(NC2CC3CCC2C3)c(NCc2ccccc2)c1` (centres unmarked) [Compound 40, 3-(benzylamino)-4-(bicyclo[2.2.1]heptan-2-ylamino)-N-ethylbenzenesulfonamide]: 3 nM.

Turning to `CCNS(=O)(=O)c1ccc(NC2CC2)c(N)c1` [Compound 20, 3-amino-4-(cyclopropylamino)-N-ethylbenzenesulfonamide], it took 76 nM to reach half-maximal inhibition (IC50). Compound `CC(C)(C)NS(=O)(=O)c1ccc(NC2CCCCC2)c(NCc2ccncc2)c1` [Compound 52, N-(tert-butyl)-4-(cyclohexylamino)-3-((pyridin-4-ylmethyl)amino)benzenesulfonamide] came in with an IC50 of 11 nM. `CCNS(=O)(=O)c1ccc(NC2CCCC2)c(NCc2ccncc2)c1` [Compound 36, 4-(cyclopentylamino)-N-ethyl-3-((pyridin-4-ylmethyl)amino)benzenesulfonamide] showed an IC50 of 36 nM.

`CC(C)(C)NS(=O)(=O)c1ccc(NC2CCCCC2)c(NCc2ccccc2)c1` [Compound 51, 3-(benzylamino)-N-(tert-butyl)-4-(cyclohexylamino)benzenesulfonamide] registered a 50% inhibitory concentration (IC50) of 6.2 nM. Compound `CCNS(=O)(=O)c1ccc(NC2CCCC2)c(NCc2ccccc2)c1` [Compound 35, 3-(benzylamino)-4-(cyclopentylamino)-N-ethylbenzenesulfonamide] returned an IC50 of 8.2 nM. Compound `CC(C)(C)NS(=O)(=O)c1ccc(NC2C3CC4CC(C3)CC2C4)c(N)c1` (centres unmarked) [Compound 29, 3-amino-N-(tert-butyl)-4-(adamantan-2-ylamine)benzenesulfonamide] registered an IC50 of 6 nM. Turning to `CC(C)(C)NS(=O)(=O)c1ccc(NC2CCCCC2)c(N)c1` [Compound 28, 3-amino-N-(tert-butyl)-4-(cyclohexylamino)benzenesulfonamide], it took 27 nM to reach half-maximal inhibition (IC50). In turn, `CC(C)(C)OCCNS(=O)(=O)c1ccc(NC2CCCCC2)c(NCc2ccccc2)c1` [Compound 55, 3-(benzylamino)-N-(2-(tert-butoxy)ethyl)-4-(cyclohexylamino)benzenesulfonamide] gave an IC50 of 22 nM. The compound `CCNS(=O)(=O)c1ccc(NC2CCCC2)c(N)c1` [Compound 21, 3-amino-4-(cyclopentylamino)-N-ethylbenzenesulfonamide] had a 50% inhibitory concentration (IC50) of 82 nM. In the case of `CNS(=O)(=O)c1ccc(NC2CCCCC2)c(NCc2ccccc2)c1` [Compound 47, 3-(benzylamino)-4-(cyclohexylamino)-N-methylbenzenesulfonamide], the IC50 was found to be 3.7 nM. On to `CCNS(=O)(=O)c1ccc(NC2C3CC4CC(C3)CC2C4)c(NCc2cncnc2)c1` (centres unmarked) [Compound 46, 4-(adamantan-2-ylamino)-N-ethyl-3-((pyrimidin-5-ylmethyl)amino)benzenesulfonamide], for which half-maximal inhibition (IC50) required 47 nM. The compound `CCNS(=O)(=O)c1ccc(NC2C3CC4CC(C3)CC2C4)c(N)c1` (centres unmarked) [Compound 25, 4-(adamantan-2-ylamino)-3-amino-N-ethylbenzenesulfonamide] came in with an IC50 of 17 nM. As to `CC(C)(C)OCCNS(=O)(=O)c1ccc(NC2CCCCC2)c(N)c1` [Compound 30, 3-amino-N-(2-(tert-butoxy)ethyl)-4-(cyclohexylamino)benzenesulfonamide], half-maximal inhibition (IC50) required 132 nM. In turn, `CCNS(=O)(=O)c1ccc(NC2CC3CCC2C3)c(NCc2ccncc2)c1` (centres unmarked) [Compound 41, 4-(bicyclo[2.2.1]heptan-2-ylamino)-N-ethyl-3-((pyridin-4-ylmethyl)amino) benzenesulfonamide] came in with an IC50 of 9.4 nM. Turning to `CCNS(=O)(=O)c1ccc(NC2CCCCCCC2)c(N)c1` [Compound 24, 3-amino-4-(cyclooctylamino)-N-ethylbenzenesulfonamide], the half-inhibitory concentration (IC50) was found to be 9.3 nM.

As to `CNS(=O)(=O)c1ccc(NC2C3CC4CC(C3)CC2C4)c(NCc2ccncc2)c1` (centres unmarked) [Compound 50, 4-(adamantan-2-ylamino)-N-methyl-3-((pyridin-4-ylmethyl)amino)benzenesulfonamide], the IC50 amounted to 6.4 nM. In turn, `CNS(=O)(=O)c1ccc(NC2C3CC4CC(C3)CC2C4)c(NCc2ccccc2)c1` (centres unmarked) [Compound 49, 4-(adamantan-2-ylamino)-3-(benzylamino)-N-methylbenzenesulfonamide] gave an IC50 of 4.9 nM. `CCNS(=O)(=O)c1ccc(NC2CC2)c(NCc2ccncc2)c1` [Compound 34, 4-(cyclopropylamino)-N-ethyl-3-((pyridin-4-ylmethyl)amino)benzenesulfonamide]: the IC50 worked out at 128 nM. `CCNS(=O)(=O)c1ccc(NC2CCCCCCC2)c(NCc2ccncc2)c1` [Compound 43, 4-(cyclooctylamino)-N-ethyl-3-((pyridin-4-ylmethyl)amino)benzenesulfonamide] had an IC50 of 22 nM.

Compound `CNS(=O)(=O)c1ccc(NC2CCCCC2)c(N)c1` [Compound 26, 3-amino-4-(cyclohexylamino)-N-methylbenzenesulfonamide] returned an IC50 of 76 nM. As for `CCNS(=O)(=O)c1ccc(NC2CCCCC2)c(NCc2ccncc2)c1` [Compound 38, 4-(cyclohexylamino)-N-ethyl-3-((pyridin-4-ylmethyl)amino)benzenesulfonamide], the half-inhibitory concentration (IC50) was 23 nM. For `CCNS(=O)(=O)c1ccc(NC2CC2)c(NCc2ccccc2)c1` [Compound 33, 3-(benzylamino)-4-(cyclopropylamino)-N-ethylbenzenesulfonamide], inhibition was half-maximal at 61 nM (IC50). For `CC(C)(C)NS(=O)(=O)c1ccc(NC2C3CC4CC(C3)CC2C4)c(NCc2ccccc2)c1` (centres unmarked) [Compound 53, 4-(adamantan-2-ylamino)-3-(benzylamino)-N-(tert-butyl)benzenesulfonamide], the IC50 stood at 3.4 nM. The compound `CNS(=O)(=O)c1ccc(NC2CCCCC2)c(NCc2ccncc2)c1` [Compound 48, 4-(cyclohexylamino)-N-methyl-3-((pyridin-4-ylmethyl)amino)benzenesulfonamide] returned an IC50 of 15 nM. `CCNS(=O)(=O)c1ccc(NC2CC3CCC2C3)c(N)c1` (centres unmarked) [Compound 23, 3-amino-4-(bicyclo[2.2.1]heptan-2-ylamino)-N-ethylbenzenesulfonamide] displayed a half-inhibitory concentration (IC50) of 28 nM. The compound `CC(C)(C)NS(=O)(=O)c1ccc(NC2C3CC4CC(C3)CC2C4)c(NCc2ccncc2)c1` (centres unmarked) [Compound 54, 4-(adamantan-2-ylamino)-N-(tert-butyl)-3-((pyridin-4-ylmethyl)amino)benzenesulfonamide] returned an IC50 of 5.2 nM. Next, `CNS(=O)(=O)c1ccc(NC2C3CC4CC(C3)CC2C4)c(N)c1` (centres unmarked) [Compound 27, 3-amino-4-(adamantan-2-ylamine)-N-methylbenzenesulfonamide]: 11 nM.
